According to US10807992B2, “Single enantiomer antiparasitic compounds” (priority 2017, dated 2020):

Legend:
Rhipicephalus sanguineus = test: In vitro contact activity against adult ticks (coated vial), R. sanguineus; conditions: for mortality at 0.006 µM: Trial 3, dose 0.006 μM; for mortality at 0.024 µM: Trial 3, dose 0.024 μM; for mortality at 0.098 µM: Trial 3, dose 0.098 μM; for mortality at 0.39 µM: Trial 3, dose 0.39 μM; for mortality at 1.56 µM: Trial 3, dose 1.56 μM; for mortality at 6.25 µM: Trial 3, dose 6.25 μM; for mortality at 25 µM: Trial 3, dose 25 μM; for mortality at 100 µM: Trial 3, dose 100 μM
Method: Rhipicephalus sanguineus, Dermacentor variabilis, Amblyomma americanum, (Ecto Services, Inc., Henderson, N.C.) and Ixodes scapularis (Oklahoma State University, Stillwater, Okla.) aged between 2-4 weeks post molt were held in an environmental chamber at 24° C., 80% humidity with 12-hour light/dark cycles.
For tick assays, vial caps were pre-drilled with a single hole in the center of each cap to allow air exchange. A filter paper (Whatman Grade 540 2.1 cm) was placed in the lid of each vial. An aliquot from each compound stock was added to an acetone/triton solution to achieve the desired top doses for the study. Serial dilutions were conducted from the top dose (i.e. 100 ppm) to achieve the desired titration range for EC50 and EC90 determination. For R. sanguineus, D. variabilis, and A. americanum, the final DMSO concentration in each test vial was 0.5%. For I. scapularis, compounds were solubilized directly in an acetone/triton solution due to I. scapularis' sensitivity to DMSO. A 459 μL aliquot of each compound formulation was transferred to a vial containing a Whatman Grade 540 2.1 cm filter paper. Vials were immediately placed on an unheated roller unit to allow for an even coating of the vial walls. After vials were coated, 41 μL of each compound formulation was added to the filter paper embedded in each vial cap. Each cap was allowed to dry. The vials were loosely capped and allowed to dry for a minimum of four hours in a chemical fume hood.
Compounds tested were: the C1 racemate, C1 (R) enantiomer, and the C1 (S) enantiomer. For Trial 3, the C1 (R) enantiomer and the C1 (S) enantiomer were further chiral purified to achieve >99% purity.
Ten adult ticks were added to each vial and held at 24° C., 80% humidity with 12-hour light/dark cycles. Adult ticks were assessed for percent mortality at various time points between 2 hours and 48 hours post infestation. Ticks were stimulated on a heated roller unit and evaluated. Ticks showing no movement, or very slow and uncoordinated movement were noted as dead.

[1] = test system: Ctenocephalides felis (flea), Ixodidae (tick), and Aedes aegypti (mosquito); test: Bio-profiling of C1 racemate and enantiomers, overall conclusions of contact and ingestion assays
Text: 1-[6-[5-(3,5-dichloro-4-fluoro-phenyl)-5-(trifluoromethyl)-4H-isothiazol-3-yl]spiro[1H-isobenzofuran-3,3′-azetidine]-1′-yl]-3,3,3-trifluoro-propan-1-one (referred to herein as C1 racemate) is an isothiazoline compound consisting of two isomers: (R)-1-[6-[5-(3,5-dichloro-4-fluoro-phenyl)-5-(trifluoromethyl)-4H-isothiazol-3-yl]spiro[1H-isobenzofuran-3,3′-azetidine]-1′-yl]-3,3,3-trifluoro-propan-1-one (referred herein as C1 (R) enantiomer) and (S)-1-[6-[5-(3,5-dichloro-4-fluoro-phenyl)-5-(trifluoromethyl)-4H-isothiazol-3-yl]spiro[1H-isobenzofuran-3,3′-azetidine]-1′-yl]-3,3,3-trifluoro-propan-1-one (referred to herein as C1 (S) enantiomer). The racemic compound and the two enantiomers were tested against adult stages of Ctenocephalides felis (flea) Ixodidae (tick), and Aedes aegypti (mosquito). The compounds were solubilized in DMSO or an acetone/triton solution and dose response curves were generated for the individual compounds.
For evaluation of contact activity, coated-substrate (flea) and coated-vial (tick and mosquito) assay procedures were used. For evaluation of flea ingestion activity, an artificial feeding assay procedure was used. Insecticidal activity was evaluated at various time-points for each assay. Dose response curves were generated in duplicate on three independent test occasions (Trial 1-Trial 3) and EC50 and EC90 values were calculated.
Therefore, mortality correction was not performed in the assays. Calculation of EC50 and EC90 values was performed using XLfit. Both EC50 and EC90 values were calculated using the average of the two replicates for each Trial.
The C1 (R) enantiomer, C1 (S) enantiomer, and the C1 racemate were successfully evaluated against flea, tick, and mosquito contact and ingestion in vitro screening assays.

## O=C(CC(F)(F)F)N1CC2(C1)OCc1cc(C3=NS[C@](c4cc(Cl)c(F)c(Cl)c4)(C(F)(F)F)C3)ccc12 [C1 (R) enantiomer, (R)-1-[6-[5-(3,5-dichloro-4-fluoro-phenyl)-5-(trifluoromethyl)-4H-isothiazol-3-yl]spiro[1H-isobenzofuran-3,3′-azetidine]-1′-yl]-3,3,3-trifluoro-propan-1-one]
Rhipicephalus sanguineus; 2 h, Rep1
  mortality at 0.006 µM: 0%
  mortality at 0.024 µM: 0%
  mortality at 0.098 µM: 0%
  mortality at 0.39 µM: 0%
  mortality at 1.56 µM: 0%
  mortality at 6.25 µM: 0%
  mortality at 25 µM: 0%
  mortality at 100 µM: 0%
Rhipicephalus sanguineus; 2 h, Rep2
  mortality at 0.006 µM: 0%
  mortality at 0.024 µM: 0%
  mortality at 0.098 µM: 0%
  mortality at 0.39 µM: 0%
  mortality at 1.56 µM: 0%
  mortality at 6.25 µM: 0%
  mortality at 25 µM: 0%
  mortality at 100 µM: 0%
Rhipicephalus sanguineus; 6 h, Rep1
  mortality at 0.006 µM: 0%
  mortality at 0.024 µM: 0%
  mortality at 0.098 µM: 0%
  mortality at 0.39 µM: 0%
  mortality at 1.56 µM: 0%
  mortality at 6.25 µM: 0%
  mortality at 25 µM: 0%
  mortality at 100 µM: 0%
Rhipicephalus sanguineus; 6 h, Rep2
  mortality at 0.006 µM: 0%
  mortality at 0.024 µM: 0%
  mortality at 0.098 µM: 0%
  mortality at 0.39 µM: 0%
  mortality at 1.56 µM: 0%
  mortality at 6.25 µM: 0%
  mortality at 25 µM: 0%
  mortality at 100 µM: 0%
Rhipicephalus sanguineus; 12 h, Rep1
  mortality at 0.006 µM: 0%
  mortality at 0.024 µM: 0%
  mortality at 0.098 µM: 0%
  mortality at 0.39 µM: 0%
  mortality at 1.56 µM: 0%
  mortality at 6.25 µM: 0%
  mortality at 25 µM: 0%
  mortality at 100 µM: 0%
Rhipicephalus sanguineus; 12 h, Rep2
  mortality at 0.006 µM: 0%
  mortality at 0.024 µM: 0%
  mortality at 0.098 µM: 0%
  mortality at 0.39 µM: 0%
  mortality at 1.56 µM: 0%
  mortality at 6.25 µM: 0%
  mortality at 25 µM: 0%
  mortality at 100 µM: 0%

## O=C(CC(F)(F)F)N1CC2(C1)OCc1cc(C3=NS[C@@](c4cc(Cl)c(F)c(Cl)c4)(C(F)(F)F)C3)ccc12 [C1 (S) enantiomer, (S)-1-[6-[5-(3,5-dichloro-4-fluoro-phenyl)-5-(trifluoromethyl)-4H-isothiazol-3-yl]spiro[1H-isobenzofuran-3,3′-azetidine]-1′-yl]-3,3,3-trifluoro-propan-1-one]
Rhipicephalus sanguineus; 2 h, Rep1
  mortality at 0.006 µM: 0%
  mortality at 0.024 µM: 0%
  mortality at 0.098 µM: 0%
  mortality at 0.39 µM: 0%
  mortality at 1.56 µM: 0%
  mortality at 6.25 µM: 0%
  mortality at 25 µM: 0%
  mortality at 100 µM: 50%
Rhipicephalus sanguineus; 2 h, Rep2
  mortality at 0.006 µM: 0%
  mortality at 0.024 µM: 0%
  mortality at 0.098 µM: 0%
  mortality at 0.39 µM: 0%
  mortality at 1.56 µM: 0%
  mortality at 6.25 µM: 0%
  mortality at 25 µM: 0%
  mortality at 100 µM: 10%
Rhipicephalus sanguineus; 6 h, Rep1
  mortality at 0.006 µM: 0%
  mortality at 0.024 µM: 0%
  mortality at 0.098 µM: 0%
  mortality at 0.39 µM: 0%
  mortality at 1.56 µM: 10%
  mortality at 6.25 µM: 80%
  mortality at 25 µM: 90%
  mortality at 100 µM: 100%
Rhipicephalus sanguineus; 6 h, Rep2
  mortality at 0.006 µM: 0%
  mortality at 0.024 µM: 0%
  mortality at 0.098 µM: 0%
  mortality at 0.39 µM: 0%
  mortality at 1.56 µM: 0%
  mortality at 6.25 µM: 60%
  mortality at 25 µM: 100%
  mortality at 100 µM: 100%
Rhipicephalus sanguineus; 12 h, Rep1
  mortality at 0.006 µM: 0%
  mortality at 0.024 µM: 0%
  mortality at 0.098 µM: 0%
  mortality at 0.39 µM: 10%
  mortality at 1.56 µM: 40%
  mortality at 6.25 µM: 100%
  mortality at 25 µM: 100%
  mortality at 100 µM: 100%
Rhipicephalus sanguineus; 12 h, Rep2
  mortality at 0.006 µM: 0%
  mortality at 0.024 µM: 0%
  mortality at 0.098 µM: 0%
  mortality at 0.39 µM: 10%
  mortality at 1.56 µM: 50%
  mortality at 6.25 µM: 100%
  mortality at 25 µM: 100%
  mortality at 100 µM: 100%
[1]; adult ticks, contact assays
  potency against ticks: excellent potency against ticks
[1]; flea, tick and mosquito contact and ingestion assays, Trials 1-3
  which enantiomer carries the biological activity of the C1 racemate: primarily be associated with the C1 (S) enantiomer
